Measured values from US20230141600A1, “IMIDAZOPYRAZINE DERIVATIVES” (priority 2020, published 2023).
Where a name gives a salt, the structure may show the parent alone.

Tested on: Acinetobacter baumannii ATCC17961
Assay: 90% growth inhibitory concentration (IC90) determination, antimicrobial susceptibility testing
Format: cell-based
Details: 90% growth inhibition, Iso-Sensitest broth, OD 600 nm over 16 h, 35±2° C.; read-out: ATCC 17961 IC90
How it was run: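 Twofold serial dilutions (e.g. 50 to 0.097 μM final) in Iso-Sensitest broth, inoculated at ~5×10^5 CFU/ml and incubated at 35±2 °C for 16 h with OD600 read every minute. IC90 taken from growth inhibition during the logarithmic phase.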

SMILES | IC90 [nM]
CCc1cc(Nc2nccn3c(-c4ccc(OC)c(F)c4F)cnc23)ccc1C(=O)NCC[C@H](NC(=O)C1CC[N+](C)(CC2CNC2)CC1)C(=O)OC (mixture of isomers) [Example 121, Methyl (2S)-2-[[1-(azetidin-3-ylmethyl)-1-methyl-piperidin-1-ium-4-carbonyl]amino]-4-[[4-[[3-(2,3-difluoro-4-methoxy-phenyl)imidazo[1,2-a]pyrazin-8-yl]amino]-2-ethyl-benzoyl]amino]butanoate formate 2,2,2-trifluoroacetate (Mixed Salt)] | 854

Same assay, conditions: Acinetobacter baumannii, ATCC17961, 16 h, 90% growth inhibition, Iso-Sensitest broth, OD 600 nm over 16 h, 35±2° C.; read-out: ATCC 17961 IC90

IC90 [nM] | SMILES
166 | COc1ccc(-c2cnc3c(Nc4ccc(C(=O)NC5CCN(C(=O)C[N+](C)(C)C)CC5)c(C)c4)nccn23)c(F)c1F [Example 60, 2-(4-(4-((3-(2,3-Difluoro-4-methoxyphenyl)imidazo[1,2-a]pyrazin-8-yl)amino)-2-methylbenzamido)piperidin-1-yl)-N,N,N-trimethyl-2-oxoethan-1-aminium Chloride]
258 | CCc1cc(Nc2nccn3c(-c4ccc(OC)c(F)c4F)cnc23)ccc1C(=O)NCC1CC(NC(=O)C2CC[N+](C)(CC3CNC3)CC2)C1 (centres unmarked) [Example 127, 1-(Azetidin-3-ylmethyl)-N-[3-[[[4-[[3-(2,3-difluoro-4-methoxy-phenyl)imidazo[1,2-a]pyrazin-8-yl]amino]-2-ethyl-benzoyl]amino]methyl]cyclobutyl]-1-methyl-piperidin-1-ium-4-carboxamide formate 2,2,2-trifluoroacetate (Mixed Salt)]
350 | CCc1cc(Nc2nccn3c(-c4ccc(OC)c(F)c4F)cnc23)ccc1C(=O)NCC1CC[N+](C)(CC2CNC2)CC1 (centres unmarked) [Example 134, N-[[1-(Azetidin-3-ylmethyl)-1-methyl-piperidin-1-ium-4-yl]methyl]-4-[[3-(2,3-difluoro-4-methoxy-phenyl)imidazo[1,2-a]pyrazin-8-yl]amino]-2-ethyl-benzamide; 2,2,2-trifluoroacetate bis(2,2,2-trifluoroacetate)]

The remaining lines, values behind:

SMILES | IC90 [nM]
CCc1cc(Nc2nccn3c(-c4ccc(OC(F)F)c(F)c4F)cnc23)ccc1C(=O)NCCC(=O)N1CC[N+](C)(CC2CNC2)CC1 [Example 92, N-[3-[4-(Azetidin-3-ylmethyl)-4-methyl-piperazin-4-ium-1-yl]-3-oxo-propyl]-4-[[3-[4-(difluoromethoxy)-2,3-difluoro-phenyl]imidazo[1,2-a]pyrazin-8-yl]amino]-2-ethyl-benzamide bis(2,2,2-trifluoroacetate)] | 332
CCc1cc(Nc2nccn3c(-c4ccc(OC(F)F)c(F)c4F)cnc23)ccc1C(=O)N1CCN(C(=O)C2CC[N+](C)(CC3CNC3)CC2)CC1 (centres unmarked) [Example 81, 1-(Azetidin-3-ylmethyl)-4-(4-(4-((3-(4-(difluoromethoxy)-2,3-difluorophenyl)imidazo[1,2-a]pyrazin-8-yl)amino)-2-ethylbenzoyl)piperazine-1-carbonyl)-1-methylpiperidin-1-ium 2,2,2-trifluoroacetate] | 107
COc1ccc(-c2cnc3c(Nc4ccc(C(=O)N[C@@H]5CCN(C(=O)C[N+](C)(C)C)C5)c(C)c4)nccn23)c(F)c1F [Example 70, (R)-2-(3-(4-((3-(2,3-difluoro-4-methoxyphenyl)imidazo[1,2-a]pyrazin-8-yl)amino)-2-methylbenzamido)pyrrolidin-1-yl)-N,N,N-trimethyl-2-oxoethan-1-aminium Chloride] | 44.5
CCc1cc(Nc2nccn3c(-c4cn(CC#N)nc4C(F)(F)F)cnc23)ccc1C(=O)NCCOCC[N+]1(CC#N)CCCC1 [Example 4, 1-(Cyanomethyl)-1-(2-(2-(4-((3-(1-(cyanomethyl)-3-(trifluoromethyl)-1H-pyrazol-4-yl)imidazo[1,2-a]pyrazin-8-yl)amino)-2-ethylbenzamido)ethoxy)ethyl)pyrrolidin-1-ium Formate] | 267

Same assay, conditions: Acinetobacter baumannii, ATCC17961, 16 h, read-out: ATCC 17961 IC90

SMILES | IC90 [nM]
C[N+](C)(C)CC(=O)N[C@H]1C[C@@H](NC(=O)c2ccc(Nc3nccn4c(-c5c[nH]nc5C(F)(F)F)cnc34)cc2Cl)C1 [Example 61, [2-[[3-[[2-Chloro-4-[[3-[3-(trifluoromethyl)-1H-pyrazol-4-yl]imidazo[1,2-a]pyrazin-8-yl]amino]benzoyl]amino]cyclobutyl]amino]-2-oxo-ethyl]-trimethyl-ammonium Formate] | 478
CCc1cc(Nc2nccn3c(-c4ccc(OC)c(F)c4F)cnc23)ccc1C(=O)NCC1CCN(C(=O)C2CC[N+](C)(CC3CNC3)CC2)CC1 (centres unmarked) [Example 133, N-[[1-[1-(Azetidin-3-ylmethyl)-1-methyl-piperidin-1-ium-4-carbonyl]-4-piperidyl]methyl]-4-[[3-(2,3-difluoro-4-methoxy-phenyl)imidazo[1,2-a]pyrazin-8-yl]amino]-2-ethyl-benzamide bis(2,2,2-trifluoroacetate)] | 334

Tested on: Acinetobacter baumannii ATCC17978
Assay: as above
Format: cell-based
Details: ATCC17978, 90% growth inhibition, Iso-Sensitest broth, OD 600 nm over 16 h, 35±2° C., read-out: ATCC 17978 IC90
Procedure: Antimicrobial Susceptibility Testing:
90% Growth Inhibitory Concentration (IC90) Determination
The in vitro antimicrobial activity of the compounds was determined according to the following procedure:
The assay used a 10-points Iso-Sensitest broth medium to measure quantitatively the in vitro activity of the compounds against Acinetobacter baumannii ATCC17961 and ATCC17978.
Stock compounds in DMSO were serially twofold diluted (e.g. range from 50 to 0.097 μM final concentration) in 384 wells microtiter plates and inoculated with 49 μl the bacterial suspension in Iso-Sensitest medium to have a final cell concentration of ˜5×10^(5) CFU/ml in a final volume/well of 50 ul/well. Microtiter plates were incubated at 35±2° C.
Bacterial cell growth was determined with the measurement of optical density at λ=600 nm each minutes over a time course of 16 h. Growth inhibition was calculated during the logarithmic growth of the bacterial cells with determination of the concentration inhibiting 50% (IC50) and 90% (IC90) of the growth.
Table 1 provides the 90% growth inhibitory concentrations (IC90) in micromoles per liter of the compounds of present invention obtained against the strain Acinetobacter baumannii ATCC17978.

IC90 [nM] | SMILES
109 | CCc1cc(Nc2nccn3c(-c4ccc(OC)c(F)c4F)cnc23)ccc1C(=O)NCCOCC[N+](C)(C)C [Example 13, 2-(2-(4-((3-(2,3-difluoro-4-methoxyphenyl)imidazo[1,2-a]pyrazin-8-yl)amino)-2-ethylbenzamido)ethoxy)-N,N,N-trimethylethanaminium Formate]
1290 | C[N+]1(CCOCCNC(=O)c2ccc(Nc3nccn4c(-c5ccc(OCC#N)c(F)c5F)cnc34)cc2Cl)CCNC(C(=O)O)C1 (centres unmarked) [Example 17, 4-[2-[2-[[2-chloro-4-[[3-[4-(cyanomethoxy)-2,3-difluoro-phenyl]imidazo[1,2-a]pyrazin-8-yl]amino]benzoyl]amino]ethoxy]ethyl]-4-methyl-piperazin-4-ium-2-carboxylic acid Formate]
1050 | COc1ccc(-c2cnc3c(Nc4ccc(C(=O)N(C)CCOCC[N+](C)(C)C)c(C)c4)nccn23)cc1F [Example 35, 2-(2-(4-((3-(3-Fluoro-4-methoxyphenyl)imidazo[1,2-a]pyrazin-8-yl)amino)-N,2-dimethylbenzamido)ethoxy)-N,N,N-trimethylethan-1-aminium Chloride]
2380 | Cc1cc(Nc2nccn3c(-c4ccc(OC(F)F)cc4)cnc23)ccc1C(=O)N(C)CCC1CCN(C(=O)CC(O)C[N+](C)(C)C)CC1 (centres unmarked) [Example 39, 4-(4-(2-(4-((3-(4-(Difluoromethoxy)phenyl)imidazo[1,2-a]pyrazin-8-yl)amino)-N,2-dimethylbenzamido)ethyl)piperidin-1-yl)-2-hydroxy-N,N,N-trimethyl-4-oxobutan-1-aminium Formate]
605 | CCc1cc(Nc2nccn3c(-c4ccc(Cl)c(F)c4F)cnc23)ccc1C(=O)NCCC[N+](C)(C)C [Example 28, 3-(4-((3-(4-Chloro-2,3-difluorophenyl)imidazo[1,2-a]pyrazin-8-yl)amino)-2-ethylbenzamido)-N,N,N-trimethylpropan-1-aminium Formate]

Second part, the molecule before the results:

SMILES | IC90 [nM]
CCc1cc(Nc2nccn3c(-c4ccc(OC)c(F)c4F)cnc23)ccc1C(=O)NCCOCC[N+](C)(C)CC(=O)O [Example 50, Carboxymethyl-[2-[2-[[4-[[3-(2,3-difluoro-4-methoxy-phenyl)imidazo[1,2-a]pyrazin-8-yl]amino]-2-ethyl-benzoyl]amino]ethoxy]ethyl]-dimethyl-ammonium Formate] | 394
CCCC[N+](CCCC)(CCCC)CCCNC(=O)c1ccc(Nc2nccn3c(-c4ccc(OC)c(F)c4F)cnc23)cc1Cl [Example 49, Tributyl-[3-[[2-chloro-4-[[3-(2,3-difluoro-4-methoxy-phenyl)imidazo[1,2-a]pyrazin-8-yl]amino]benzoyl]amino]propyl]ammonium Formate] | 968
CCc1cc(Nc2nccn3c(-c4ccc(OC)c(F)c4F)cnc23)ccc1C(=O)NCCOCC[N+](C)(C)CC(N)=O [Example 52, (2-Amino-2-oxo-ethyl)-[2-[2-[[4-[[3-(2,3-difluoro-4-methoxy-phenyl)imidazo[1,2-a]pyrazin-8-yl]amino]-2-ethyl-benzoyl]amino]ethoxy]ethyl]-dimethyl-ammonium Formate] | 38.8
Cc1cc(Nc2nccn3c(-c4ccc(OC(F)F)cc4)cnc23)ccc1C(=O)NCCCCCC[N+](C)(C)C [Example 25, 6-(4-((3-(4-(difluoromethoxy)phenyl)imidazo[1,2-a]pyrazin-8-yl)amino)-2-methylbenzamido)-N,N,N-trimethylhexan-1-aminium Formate] | 591

Same assay, conditions: ATCC17978, 16 h, read-out: ATCC 17978 IC90

SMILES | IC90 [nM]
COc1ccc(-c2cnc3c(Nc4ccc(C(=O)N(C)CCN5CC[N+](C)(C)CC5)c(Cl)c4)nccn23)c(F)c1F [Example 21, 2-chloro-4-[[3-(2,3-difluoro-4-methoxy-phenyl)imidazo[1,2-a]pyrazin-8-yl]amino]-N-[2-(4,4-dimethylpiperazin-4-ium-1-yl)ethyl]-N-methyl-benzamide 2,2,2-trifluoroacetate] | 480
